Results published in paper PMC12079163 (Drug Development Research, 2025).
“Also recorded” adds a separate entry of the source.

How the values were obtained:
[1] = Solubility under the assay conditions; format: physicochemical; conditions: HDAC, BCL‐2 and cell assays; data not reliable, not reported
[2] = biological target: T1, HDAC6 (Homo sapiens, UniProt Q9UBN7); conditions: ref Zhou et al. [2019]; cited from earlier work
T1 sequence (Q9UBN7 1-1215): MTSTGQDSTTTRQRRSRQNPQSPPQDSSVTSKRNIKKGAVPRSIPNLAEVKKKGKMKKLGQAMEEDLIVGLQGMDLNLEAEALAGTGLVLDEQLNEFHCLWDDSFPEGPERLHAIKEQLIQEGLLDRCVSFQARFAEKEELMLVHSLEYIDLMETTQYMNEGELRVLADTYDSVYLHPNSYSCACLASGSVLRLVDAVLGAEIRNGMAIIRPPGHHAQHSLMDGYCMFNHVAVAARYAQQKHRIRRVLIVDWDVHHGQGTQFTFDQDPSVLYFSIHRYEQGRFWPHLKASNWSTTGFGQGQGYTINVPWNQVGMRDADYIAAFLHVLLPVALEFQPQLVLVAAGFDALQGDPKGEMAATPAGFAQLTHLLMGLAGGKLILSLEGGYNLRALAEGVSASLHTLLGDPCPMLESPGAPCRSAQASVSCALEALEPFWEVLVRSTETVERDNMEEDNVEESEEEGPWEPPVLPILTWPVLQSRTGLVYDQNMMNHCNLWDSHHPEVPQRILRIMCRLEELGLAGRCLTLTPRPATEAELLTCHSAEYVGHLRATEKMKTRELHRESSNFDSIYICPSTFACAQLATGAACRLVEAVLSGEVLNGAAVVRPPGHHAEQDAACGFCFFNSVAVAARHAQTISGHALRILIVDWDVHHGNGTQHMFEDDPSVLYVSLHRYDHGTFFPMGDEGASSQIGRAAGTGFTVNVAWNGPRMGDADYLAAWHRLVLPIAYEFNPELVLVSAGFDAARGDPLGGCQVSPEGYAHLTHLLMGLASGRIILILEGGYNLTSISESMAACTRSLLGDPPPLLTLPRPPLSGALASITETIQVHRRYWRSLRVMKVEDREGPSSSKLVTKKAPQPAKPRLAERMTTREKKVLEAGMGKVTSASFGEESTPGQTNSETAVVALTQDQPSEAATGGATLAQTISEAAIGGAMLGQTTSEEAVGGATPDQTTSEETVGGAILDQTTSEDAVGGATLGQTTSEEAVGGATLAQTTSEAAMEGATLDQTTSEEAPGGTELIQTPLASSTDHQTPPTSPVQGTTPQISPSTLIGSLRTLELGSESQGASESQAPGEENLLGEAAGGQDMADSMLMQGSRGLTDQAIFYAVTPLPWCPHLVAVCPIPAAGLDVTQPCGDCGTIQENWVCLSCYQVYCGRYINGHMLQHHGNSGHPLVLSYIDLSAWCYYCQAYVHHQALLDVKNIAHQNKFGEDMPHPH

| Compound | solubility under the assay conditions [1] | selectivity for HDAC6 over HDAC1 [2] |
| --- | --- | --- |
| CC1(C)CCC(CN2CCN(c3ccc(C(=O)NS(=O)(=O)c4ccc(NCc5ccc(C(=O)Nc6ccc(-c7cccs7)cc6N)cc5)c([N+](=O)[O-])c4)c(Oc4cnc5[nH]ccc5c4)c3)CC2)=C(c2ccc(Cl)cc2)C1 [AMC‐4‐074, 2‐((1H‐pyrrolo[2,3‐b]pyridin‐5‐yl)oxy)‐N‐((4‐((4‐((2‐amino‐4‐(thiophen‐2‐yl)phenyl)carbamoyl)benzyl)amino)‐3‐nitrophenyl)sulfonyl)‐4‐(4‐((4′‐chloro‐5,5‐dimethyl‐3,4,5,6‐tetrahydro‐[1,1′‐biphenyl]‐2‐yl)methyl)piperazin‐1‐yl)benzamide] | solubility proved problematic; also recorded: Limited solubility | – |
| CC1(C)CCC(CN2CCN(c3ccc(C(=O)NS(=O)(=O)c4ccc(NCC5CCN(c6c(F)cc(C(=O)NO)cc6F)CC5)c([N+](=O)[O-])c4)c(Oc4cnc5[nH]ccc5c4)c3)CC2)=C(c2ccc(Cl)cc2)C1 [AMC‐4‐101, 4‐(4‐(((4‐(N‐(2‐((1H‐pyrrolo[2,3‐b]pyridin‐5‐yl)oxy)‐4‐(4‐((4′‐chloro‐5,5‐dimethyl‐3,4,5,6‐tetrahydro‐[1,1′‐biphenyl]‐2‐yl)methyl)piperazin‐1‐yl)benzoyl)sulfamoyl)‐2‐nitrophenyl)amino)methyl)piperidin‐1‐yl)‐3,5‐difluoro‐N‐hydroxybenzamide] | Limited solubility | – |
| O=C(CCCCCCC(=O)Nc1ccccc1)NO [SAHA] | – | about threefold |
